Melting point data for 20 compounds are collected here from patent US7192975B2, “Arylimidazole derivatives, preparation and therapeutic used thereof” (Societe de Conseils de Recherches Et d''Applications …, priority 2002, dated 2007).

SMILES strings stand for the structures. Counter-ions that a name gives are not always drawn.

Regarding `Cl.NC(=Nc1ccc(-c2c[nH]c(CNC3CCCCCC3)n2)cc1)c1cccs1` [Example 20, N′-(4-{2-[(cycloheptylamino)methyl]-1H-imidazol-4-yl}phenyl)thiophene-2-carboximidamide hydrochloride], the melting point (in general, the temperature of the solid-liquid transition) lay in the range of 264 to 265 °C.

`Cl.NC(=Nc1ccc(-c2c[nH]c(CCNC3CCCCC3)n2)cc1)c1cccs1` [Example 5, N′-(4-{2-[2-(cyclohexylamino)ethyl]-1H-imidazol-4-yl}phenyl)thiophene-2-carboximidamide hydrochloride] registered a melting point of 185 to 186 °C.

`Cl.NC(=Nc1cccc(-c2c[nH]c(C/N=C(/N)c3cccs3)n2)c1)c1cccs1` [Example 11, N′-{3[2-({[(1E)-amino(thien-2-yl)methylene]-amino}methyl)-1H-imidazol-4-yl]phenyl}thiophene-2-carboximidamide hydrochloride] gave a melting point of over 300 °C.

Compound `NC(=N[N+](=O)[O-])Nc1ccc(-c2c[nH]c(CCC3CCCCC3)n2)cc1` (as salt: hydrochloride) [Example 19, N{4-[2-(2-cyclohexylethyl)-1H-imidazol-4-yl]phenyl}N″-nitroguanidine hydrochloride] displayed a melting point of 185 to 186 °C.

Compound `CNCc1nc(-c2ccc(N=C(N)c3cccs3)cc2)c[nH]1.Cl` [Example 21, N′-(4-{2-[(methylamino)methyl]-1H-imidazol-4-yl}phenyl)thiophene-2-carboximidamide hydrochloride] displayed a melting point of over 250 °C.

Compound `CCCCN(CCc1nc(-c2cccc(/N=C(/N)c3cccs3)c2)c[nH]1)C(=O)O.Cl` [Example 2, butyl-2[4(3-{[(1E)-amino(thien-2yl)methylene]-amino}phenyl)-1H-imidazol-2-yl]ethylcarbamate hydrochloride] showed a melting point of 210 to 212 °C.

For `NC(=Nc1cccc(-c2c[nH]c(CNC3CCCCC3)n2)c1)c1cccs1` (as salt: hydrochloride) [Example 6, N′-(3{2-[cyclohexylamino)methyl]-1H-imidazol-4-yl}phenyl)thiophene-2-carboximidamide hydrochloride], the melting point was over 225 °C.

On to `CN(Cc1nc(-c2ccc(N=C(N)c3cccs3)cc2)c[nH]1)C1CCCCC1.Cl` [Example 7, N′-[4-(2-{[cyclohexyl(methyl)amino]methyl}-1H-imidazol-4-yl)phenyl]thiophene-2-carboximidamide hydrochloride], for which the melting point lay within 240 to 241 °C.

As for `CCCCCC(CCCCC)c1nc(-c2cccc(N=C(N)c3cccs3)c2)c[nH]1.Cl` [Example 14, N′-{3-[2(1-pentylhexyl)-1H-imidazol-4-yl]phenyl}thiophene-2-carboximidamide hydrochloride], the melting point is 163.3 °C.

The compound `Cl.NC(=Nc1cccc(-c2c[nH]c(CC/N=C(/N)c3cccs3)n2)c1)c1cccs1` [Example 24, N′-{3-[2-(2{[(1E)-amino(thien-2-yl)methylene]amino}ethyl)-1H-imidazol-4-yl]phenyl}thiophene-2-carboximidamide hydrochloride] gave a melting point of over 245 °C.

For the compound `Cl.NC(=Nc1ccc(-c2c[nH]c(CNCc3ccccc3)n2)cc1)c1cccs1` [Example 9, N′-(4-{2-[(benzylamino)methyl]-1H-imidazol-4-yl}phenyl)thiophene-2-carboximidamide hydrochloride], the melting point was 228 to 229 °C.

`Cl.NC(=Nc1ccc(-c2c[nH]c(CCC3CCCCC3)n2)cc1)c1cccs1` [Example 15, N′-{4-[2-(2-cyclohexylethyl)-1H-imidazol-4-yl]phenyl}thiophene-2-carboximidamide hydrochloride] returned a melting point of 196.2 °C.

For `Cl.NC(=Nc1cccc(-c2c[nH]c(CCCC3CCCCC3)n2)c1)c1cccs1` [Example 17, N′-{3-[2-(3-cyclohexylpropyl)-1H-imidazol-4-yl]phenyl}thiophene-2-carboximidamide hydrochloride], the melting point is 180 to 181 °C.

As for `Cl.NC(=Nc1ccc(-c2c[nH]c(CNC3CCC3)n2)cc1)c1cccs1` [Example 22, N′-(4-{2-[(cyclobutylamino)methyl]-1H-imidazol-4-yl}phenyl)thiophene-2-carboximidamide hydrochloride], the melting point was 263 to 264 °C.

`Cl.NC(=Nc1ccc(-c2c[nH]c(CNCC(c3ccccc3)c3ccccc3)n2)cc1)c1cccs1` [Example 23, N′[4-(2-{[(2,2-diphenylethyl)amino]methyl}-1H-imidazol-4-yl)phenyl]thiophene-2-carboximidamide hydrochloride] came in with a melting point of over 250 °C.

On to `N=C(Nc1cccc(-c2c[nH]c(CCC3CCCCC3)n2)c1)c1cccs1` (as salt: hydrochloride) [Example 13, N-{3[2-(2-cyclohexlethyl)-1H-imidazol-4-yl]phenyl}thiophene-2-carboximidamide hydrochloride], for which the melting point is over 191 °C.

Take `Cl.NC(=Nc1ccc(-c2c[nH]c(C/N=C(/N)c3cccs3)n2)cc1)c1cccs1` [Example 12, N′-{4-[2-({[(1E)-amino(thien-2-yl)methylene]-amino}methyl)-1H-imidazol-4-yl]phenyl}thiophene-2-carboximidamide hydrochloride]: the melting point is 227 to 228 °C.

For `Cl.NC(=Nc1ccc(-c2c[nH]c(CN(Cc3ccccc3)Cc3ccccc3)n2)cc1)c1cccs1` [Example 8, N′-(4{2-[(dibenzylamino)methyl]-1H-imidazol-4-yl}phenyl)thiophene-2-carboximidamide hydrochloride], the melting point lay within 150 to 151 °C.

Consider `CC(C)Cc1ccc(Cc2nc(-c3cccc(N=C(N)c4cccs4)c3)c[nH]2)cc1.Cl` [Example 27, N′-{3-[2-(4-isobutylbenzyl)-1H-imidazol-4-yl]phenyl}thiophene-2-carboximidamide hydrochloride], for which the melting point was 214 to 216 °C.

Compound `CCCCOC(=O)NCCc1nc(-c2ccc(-c3ccc(N=C(N)c4cccs4)cc3)cc2)c[nH]1` (as salt: hydrochloride) [Example 3, butyl 2-[4-(4′-{[(1Z)-amino(thien-2-yl)methylene]amino}-1,1′-biphenyl-4-yl-1H-imidazol-2-yl]ethylcarbamate hydrochloride] returned a melting point of 97 to 98 °C.
